Assay results reported in patent US20050256176A1, “Sulphonamide derivatives and their use as tace inhibitors” (priority 2002, published 2005).

Target: T1, proTNF-α convertase enzyme (TACE) (Homo sapiens, UniProt P78536)
T1 construct: a partially purified, isolated enzyme assay, the enzyme being obtained from the membranes of THP-1; endogenous in cells; host or cells: THP-1 cell membranes, partially purified as in Mohler et al. (1994) Nature 370:218-220
Assay: Isolated enzyme assay, proTNF-α convertase (TACE), fluorescent peptide substrate
Assay type: biochemical
Details: partially purified enzyme from membranes of THP-1; 26° C. for 4 hours; read-out: concentration giving 50% inhibition of TACE
Experimental: Recombinant human proMMP13 may be expressed and purified as described by Knauper et al. [V. Knauper et al., (1996) […] 271:1544-1550 (1996)]. […] Activity is determined by measuring the fluorescence at λex 328 nm and λem 393 nm. Percent inhibition is calculated as follows: % Inhibition is equal to the [Fluorescenceplus inhibitor−Fluorescencebackground] divided by the [Fluorescenceminus inhibitor−Fluorescencebackground].
The ability of the compounds to inhibit proTNF-α convertase enzyme (TACE) may be assessed using a partially purified, isolated enzyme assay, the enzyme being obtained from the membranes of THP-1 as described by K. M. Mohler et al., (1994) Nature 370:218-220. The purified enzyme activity and inhibition thereof is determined by incubating the partially purified enzyme in the presence or absence of test compounds using the substrate 4′,5′-Dimethoxy-fluoresceinyl Ser.Pro.Leu.Ala.Gln.Ala.Val.Arg.Ser.Ser.Ser.Arg.Cys(4-(3-succinimid-1-yl)-fluorescein)-NH2 in assay buffer (50 mM Tris HCl, pH 7.4 containing 0.1% (w/v) Triton X-100 and 2 mM CaCl2), at 26° C. for 4 hours. The amount of inhibition is determined as for MMP13 except λex 485 nm and λem 538 nm were used. […]

T1 sequence (P78536 215-824): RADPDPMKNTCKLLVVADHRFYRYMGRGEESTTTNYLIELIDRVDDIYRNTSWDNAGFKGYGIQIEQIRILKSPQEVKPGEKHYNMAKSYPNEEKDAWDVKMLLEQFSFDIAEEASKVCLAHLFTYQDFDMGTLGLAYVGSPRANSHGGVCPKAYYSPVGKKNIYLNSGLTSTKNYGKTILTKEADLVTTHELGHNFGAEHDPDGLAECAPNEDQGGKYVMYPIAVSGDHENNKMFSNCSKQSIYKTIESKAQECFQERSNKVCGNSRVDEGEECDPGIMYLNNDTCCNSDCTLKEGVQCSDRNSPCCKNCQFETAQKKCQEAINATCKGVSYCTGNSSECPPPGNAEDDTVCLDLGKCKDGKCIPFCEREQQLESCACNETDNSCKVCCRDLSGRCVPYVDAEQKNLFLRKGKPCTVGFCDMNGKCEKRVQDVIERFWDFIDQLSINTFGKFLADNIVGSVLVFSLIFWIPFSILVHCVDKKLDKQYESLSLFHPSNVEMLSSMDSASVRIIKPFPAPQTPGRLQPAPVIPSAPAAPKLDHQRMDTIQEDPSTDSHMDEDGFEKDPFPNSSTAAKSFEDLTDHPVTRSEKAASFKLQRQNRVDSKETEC

SMILES | IC50 [nM]
Cc1cc(COc2ccc(NS(=O)(=O)CC3(C)NC(=O)NC3=O)cc2)c2ccccc2n1 (centres unmarked) [Example 1A, 1-(4-methyl-2,5-dioxoimidazolidin-4-yl)-N-{4-[(2-methylquinolin-4-yl)methoxy]phenyl}methanesulphonamide] | 71
CCC1(CS(=O)(=O)Nc2ccc(OCc3cc(C)nc4ccccc34)cc2)NC(=O)NC1=O (centres unmarked) [Example 2A, 1-(4-ethyl-2,5-dioxoimidazolidin-4-yl)-N-{4-[(2-methylquinolin-4-yl)methoxy]phenyl}methanesulphonamide] | 37
